Data published in patent US5858684A, “Method of screening calcium receptor-active molecules” (priority 1995, dated 1999).
Entries after “also recorded” stand apart in the source; their conditions may differ. Like-named read-outs stand apart in the source and are kept apart here.

Columns and labels:
Type in all cases: cell-based
[1] = target: T1, bovine parathyroid cell calcium receptor (BoPCaR 1) (Bos taurus, UniProt P35384); assay: Cl- current in Xenopus oocytes expressing BoPCaR 1; conditions: for Cl- current response in the absence of extracellular Ca2+: no extracellular Ca2+
T1 construct: Xenopus oocytes were injected with BoPCaR 1, the 5.3 Kb cDNA encoding a bovine parathyroid cell calcium receptor; expressed in transfected cells; host or cells: Xenopus laevis oocytes injected with cRNA/cDNA of BoPCaR 1
T1 sequence (P35384 20-1085): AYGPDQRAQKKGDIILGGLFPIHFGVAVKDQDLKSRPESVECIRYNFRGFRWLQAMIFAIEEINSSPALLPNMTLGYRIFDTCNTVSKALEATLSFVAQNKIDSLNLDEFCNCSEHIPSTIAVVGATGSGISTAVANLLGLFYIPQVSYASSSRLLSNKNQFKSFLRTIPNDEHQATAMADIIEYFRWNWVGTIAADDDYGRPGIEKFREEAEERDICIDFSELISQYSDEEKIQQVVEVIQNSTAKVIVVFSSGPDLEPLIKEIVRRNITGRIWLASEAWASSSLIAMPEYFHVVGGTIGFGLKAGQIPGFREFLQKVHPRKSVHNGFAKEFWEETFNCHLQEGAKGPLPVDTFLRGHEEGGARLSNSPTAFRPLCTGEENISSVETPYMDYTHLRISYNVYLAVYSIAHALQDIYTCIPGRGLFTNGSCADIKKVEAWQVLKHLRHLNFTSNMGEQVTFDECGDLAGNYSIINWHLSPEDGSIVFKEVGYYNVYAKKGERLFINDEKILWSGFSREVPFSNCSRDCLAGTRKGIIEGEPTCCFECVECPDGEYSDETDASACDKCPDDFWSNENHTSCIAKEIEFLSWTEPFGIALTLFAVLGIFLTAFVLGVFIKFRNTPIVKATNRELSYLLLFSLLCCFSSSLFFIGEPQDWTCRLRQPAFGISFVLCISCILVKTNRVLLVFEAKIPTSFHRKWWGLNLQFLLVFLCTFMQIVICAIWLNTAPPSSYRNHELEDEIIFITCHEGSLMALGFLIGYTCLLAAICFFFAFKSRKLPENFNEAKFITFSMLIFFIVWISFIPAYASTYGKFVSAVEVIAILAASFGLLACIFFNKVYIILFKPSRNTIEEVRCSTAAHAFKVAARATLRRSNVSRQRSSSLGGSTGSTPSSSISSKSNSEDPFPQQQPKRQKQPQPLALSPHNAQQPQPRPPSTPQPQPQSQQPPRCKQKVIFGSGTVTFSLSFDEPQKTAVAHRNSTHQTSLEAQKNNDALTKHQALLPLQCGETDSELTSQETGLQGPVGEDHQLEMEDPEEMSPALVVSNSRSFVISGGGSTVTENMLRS
Experimental: Following incubation, an oocyte was placed into a 100-μl plastic chamber and superfused with MBS at a flow rate of 0.5 ml/min using a peristaltic pump. Test molecules or inorganic polycations were added by rapidly moving the tubing into different buffers. Recording and current-passing electrodes were constructed from thin-wall capillary tubing pulled to a resistance of 1-3 Mohms and filled with 3M KCl. […] Currents were recorded directly onto a strip chart recorder.
The techniques used to clone the parathyroid calcium receptor are briefly described in this example; a more complete description of the techniques is provided in preceding sections, which describe techniques which may be used to clone additional forms of the Ca^2+ -receptor from other cell types. Poly(A^+)-enriched mRNA was initially prepared from bovine parathyroid glands by extracting with guanidinium thiocyanate, centrifugation through CsCl and oligo(dT) cellulose chromatography. […] No such currents were elicited in control eggs injected with water.
These responses are mediated by the following series of biochemical events:
Xenopus oocytes were injected with BoPCaR 1, the 5.3 Kb cDNA encoding a bovine parathyroid cell calcium receptor as described in Example 25. After two to three days, Cl^- currents were examined in the oocytes using a two-electrode voltage clamp.
Xenopus oocytes were injected with BoPCaR 1 as described in Example 25. After two to three days, Cl^- currents were examined in the oocytes using two electrode voltage clamp.

[2] = test system: parathyroid cell calcium receptor; conditions: for response in the absence of extracellular Ca2+: Ca2+-free / absence of extracellular Ca2+
C-cell calcium receptor = target: T2, C-cell calcium receptor (Rattus norvegicus, UniProt P48442); design: Neoplastic C-cells derived from a rat medullary thyroid carcinoma (rMTC 6-23); host or cells: rMTC 6-23
T2 sequence (P48442 20-1079): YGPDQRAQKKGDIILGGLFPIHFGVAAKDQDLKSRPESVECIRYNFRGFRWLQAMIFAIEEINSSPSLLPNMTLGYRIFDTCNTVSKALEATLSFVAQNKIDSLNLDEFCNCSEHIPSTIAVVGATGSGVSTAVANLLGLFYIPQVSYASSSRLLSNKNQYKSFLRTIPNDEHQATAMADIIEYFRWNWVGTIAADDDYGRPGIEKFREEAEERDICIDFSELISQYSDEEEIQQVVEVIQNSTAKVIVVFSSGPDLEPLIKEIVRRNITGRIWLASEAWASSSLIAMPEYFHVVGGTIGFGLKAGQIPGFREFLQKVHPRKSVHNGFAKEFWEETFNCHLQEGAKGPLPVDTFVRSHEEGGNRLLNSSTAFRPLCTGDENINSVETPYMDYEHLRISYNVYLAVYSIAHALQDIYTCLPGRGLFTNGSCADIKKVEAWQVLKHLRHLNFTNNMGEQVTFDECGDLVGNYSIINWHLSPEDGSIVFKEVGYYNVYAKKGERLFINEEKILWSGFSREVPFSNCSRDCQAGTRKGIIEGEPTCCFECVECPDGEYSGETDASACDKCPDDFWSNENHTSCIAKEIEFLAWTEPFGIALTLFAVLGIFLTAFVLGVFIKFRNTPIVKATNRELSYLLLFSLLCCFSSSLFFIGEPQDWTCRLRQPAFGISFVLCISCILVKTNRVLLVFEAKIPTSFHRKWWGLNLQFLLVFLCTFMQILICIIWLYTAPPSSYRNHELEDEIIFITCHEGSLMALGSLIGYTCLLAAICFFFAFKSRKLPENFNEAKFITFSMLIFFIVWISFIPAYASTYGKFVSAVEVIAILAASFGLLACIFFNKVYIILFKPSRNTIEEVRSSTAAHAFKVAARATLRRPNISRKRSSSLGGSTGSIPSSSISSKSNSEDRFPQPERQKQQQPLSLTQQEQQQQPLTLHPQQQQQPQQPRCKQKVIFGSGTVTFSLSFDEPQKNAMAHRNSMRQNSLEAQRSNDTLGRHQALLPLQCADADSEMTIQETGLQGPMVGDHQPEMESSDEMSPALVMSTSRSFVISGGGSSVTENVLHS
Text: To assess the effects of molecular polycations on C-cells, a neoplastic cell line, derived from a rat medullary thyroid carcinoma (rMTC 6-23 cells) was used.

[3] = rMTC 6-23 cells, fura-2, inactive = no increase in cytosolic Ca2+ at 1-5 mM

Q: How did the “concentrations eliciting increases in Cl- current” value [1] turn out when `NC[C@@H]1O[C@H](O[C@H]2[C@@H](O)[C@H](O[C@@H]3[C@@H](O)[C@H](N)C[C@H](N)[C@H]3O[C@H]3O[C@H](CN)[C@@H](O)[C@H](O)[C@H]3N)O[C@@H]2CO)[C@H](N)[C@@H](O)[C@@H]1O` [Neomycin] was run?
A: Its value is 20 to 100 µM.

Q: What about the “large inward currents: effective concentration” value ([1]; cRNA-injected oocytes) of the same molecule?
A: Its value is 200 µM.

Q: And the “Cl- current response in the absence of extracellular Ca2+” value (“Cl- current response in the absence” for short) [1]?
A: Its value is “persists”.

Q: What about the “increase in [Ca2+]i / mobilization of intracellular Ca2+” value [2] of the same molecule?
A: The value was “evoked rapid and transient increases”.

Q: What about the “increase in [Ca2+]i (words)” value ([2]; 10 μM, Ca2+-free buffer) of the same molecule?
A: Its value is “did not by itself cause an increase”.

Q: What about the “increase in [Ca2+]i (words)” value ([2]; 100 μM, absence of extracellular Ca2+) of the same molecule?
A: Its value is “evoked a rapid and transient increase”.

Q: What about the “effect on basal [Ca2+]i” value (C-cell calcium receptor) of the same molecule?
A: The value was “fails to affect basal or evoked increases; also recorded: without effect on basal”.

Q: And the “EC50 C-CELL (Table 6)” value (C-cell calcium receptor; [3])?
A: The value was “inactive”.

Q: Which “potentiation of response to submaximal extracellular Ca2+” value [1] does the source give for `COc1cccc([C@@H](C)NCCCc2ccccc2)c1` (single isomer, unassigned) [NPS R-467] here?
A: Its value is “potentiate the response”.

Q: And the “increase in [Ca2+]i after 10 μM neomycin” value ([2]; 30 μM NPS R-467 after 10 μM neomycin, Ca2+-free buffer)?
A: Its value is “elicited a transient increase”.

Q: And the “increase in [Ca2+]i after 100 μM neomycin” value ([2]; 30 μM NPS R-467 after 100 μM neomycin, Ca2+-free buffer)?
A: The value was “did not cause an increase”.

Q: And the “increase in [Ca2+]i (words)” value ([2]; 30 μM, Ca2+-free buffer)?
A: The value was “no increase; also recorded: did not cause any increase”.

Q: And the “increase in [Ca2+]i (words)” value ([2]; 0.5 mM extracellular Ca2+)?
A: The value was “rapid and transient increase”.

Q: What about the “response in the absence of extracellular Ca2+” value [2] of the same molecule?
A: The value was “abolished; also recorded: do not cause the mobilization of intracellular”.

Q: And the “effect on responses to extracellular Ca2+” value ([2]; bovine parathyroid cells)?
A: Its value is “increase the sensitivity of the calcium receptor”.

Q: Which “potentiation of response to submaximal extracellular Ca2+” value [1] does the source give for `COc1cccc([C@@H](C)NCCCc2ccccc2Cl)c1` [NPS R-568, (R)-(+)-N-[3-(2-chlorophenyl)propyl]-amethyl-α-3-methoxybenzylamine] here?
A: The value was “potentiate the response; also recorded: potentiated the responses to submaximal concentrations”.

Q: And the “Cl- current response in the absence” value [1]?
A: Its value is “abolished”.

Q: What about the “increase in [Ca2+]i / mobilization of intracellular Ca2+” value [2] of the same molecule?
A: The value was “evokes increases”.

Q: What about the “response in the absence of extracellular Ca2+” value [2] of the same molecule?
A: Its value is “fails to evoke increases; also recorded: do not cause the mobilization of intracellular”.

Q: What about the “effect on responses to extracellular Ca2+” value ([2]; bovine parathyroid cells) of the same molecule?
A: The value was “potentiate responses to extracellular; also recorded: increase the sensitivity of the calcium receptor”.

Q: And the EC50 (C-cell calcium receptor; [3])?
A: The EC50 was 1.9 µM.

Q: Which “Cl- current” value ([1]; 1 mM extracellular Ca2+) does the source give for `NCCCNCCCCNCCCNCCCNCCCNC(=O)Cc1c[nH]c2ccccc12` [NPS 019] here?
A: Its value is “oscillatory increases”.

Q: And the “Cl- current response in the absence” value [1]?
A: The value was “persisted”.

Q: And the EC50 ([2]; bovine parathyroid cells, fura-2, read-out: EC50 PARATHYROID (Table 6))?
A: The EC50 was 40 µM.

Q: What about the “transient increase in [Ca2+]i” value (C-cell calcium receptor; 10 μM, 0.5 mM [Ca2+]) of the same molecule?
A: The value was “transient increase”.
